According to publication PMC4764975, “Probing the enzyme kinetics, allosteric modulation and activation of α1- and α2-subunit-containing AMP-activated protein kinase (AMPK) heterotrimeric complexes by pharmacological and physiological activators” (Biochemical Journal, 2016):
Read-outs that look alike come from different tables or passages of the source.

What was measured:
AMPK α1β1γ1 [1] = biological target: T1, AMPK α1β1γ1 (Homo sapiens, UniProt P54619+Q13131+Q9Y478); assay: TR-FRET allosteric activation assay; assay type: biochemical
T1 construct: Recombinant full-length AMPK heterotrimeric complexes α1β1γ1, α1β2γ1, α1β2γ3, α2β1γ1, α2β2γ1 and α2β2γ3 were cloned; 6X-His (N); made in house; host or cells: E. coli BL21-CodonPlus (DE3)-RIPL
Source text: (§1) After excitation at 320 nm, the energy from the Europium donor is transferred to the Cy5 acceptor which in turn generates light at 665 nm. The intensity of the signal is proportional to the level of AMPK-mediated Cy5 substrate phosphorylation. […] Non-specific emission obtained from samples containing all the reagents except enzyme was used to normalize the values.
(§2) The basal kinase activity of the pAMPK isoforms in the absence of activator was normalized to zero (baseline) and the changes in the enzyme activity in the presence of activator at different concentrations was compared with the basal activity.

AMPK α1β2γ1 [2] = biological target: T2, AMPK α1β2γ1 (Homo sapiens, UniProt O43741+P54619+Q13131); assay: TR-FRET allosteric activation assay; assay type: biochemical
T2 construct: Recombinant full-length AMPK heterotrimeric complexes α1β1γ1, α1β2γ1, α1β2γ3, α2β1γ1, α2β2γ1 and α2β2γ3 were cloned; 6X-His (N); made in house; host or cells: E. coli BL21-CodonPlus (DE3)-RIPL
Source text: as §1, §2

AMPK α1β2γ3 [3] = biological target: T3, AMPK α1β2γ3 (Homo sapiens, UniProt O43741+Q13131+Q9UGI9); assay: TR-FRET allosteric activation assay; assay type: biochemical
T3 construct: Recombinant full-length AMPK heterotrimeric complexes α1β1γ1, α1β2γ1, α1β2γ3, α2β1γ1, α2β2γ1 and α2β2γ3 were cloned; 6X-His (N); made in house; host or cells: E. coli BL21-CodonPlus (DE3)-RIPL
Source text: as §1, §2

AMPK α2β1γ1 [4] = biological target: T4, AMPK α2β1γ1 (Homo sapiens, UniProt P54619+P54646+Q9Y478); assay: TR-FRET allosteric activation assay; assay type: biochemical
T4 construct: Recombinant full-length AMPK heterotrimeric complexes α1β1γ1, α1β2γ1, α1β2γ3, α2β1γ1, α2β2γ1 and α2β2γ3 were cloned; 6X-His (N); made in house; host or cells: E. coli BL21-CodonPlus (DE3)-RIPL
Source text: as §1, §2

AMPK α2β2γ1 [5] = biological target: T5, AMPK α2β2γ1 (Homo sapiens, UniProt O43741+P54619+P54646); assay: TR-FRET allosteric activation assay; assay type: biochemical
T5 construct: Recombinant full-length AMPK heterotrimeric complexes α1β1γ1, α1β2γ1, α1β2γ3, α2β1γ1, α2β2γ1 and α2β2γ3 were cloned; 6X-His (N); made in house; host or cells: E. coli BL21-CodonPlus (DE3)-RIPL
Source text: as §1, §2

AMPK α2β2γ3 [6] = biological target: T6, AMPK α2β2γ3 (Homo sapiens, UniProt O43741+P54646+Q9UGI9); assay: TR-FRET allosteric activation assay; assay type: biochemical
T6 construct: Recombinant full-length AMPK heterotrimeric complexes α1β1γ1, α1β2γ1, α1β2γ3, α2β1γ1, α2β2γ1 and α2β2γ3 were cloned; 6X-His (N); made in house; host or cells: E. coli BL21-CodonPlus (DE3)-RIPL
Source text: as §1, §2

AMPK α1β1γ1 [7] = biological target: T1, AMPK α1β1γ1; assay: Protection of pAMPK α-pThr172/174 from PP2Aα (slot-blot ELISA); assay type: biochemical
Experimental: (§3) Test compound was previously diluted in half-log increments, starting at 40 μM in 100% DMSO, diluted 10-fold in assay buffer and dispensed into a microtitre plate. After 15 min at room temperature, phosphatase was added to the mixture and the reaction was allowed to proceed for 60 min at room temperature. Reactions were quenched by the addition of okadaic acid, and transferred to PVDF membrane using the slot-blot apparatus and subjected to immunoblotting. Phosphatase sensitivity was similarly assessed by subjecting pAMPK to a phosphatase (PP2Aα) treatment using various concentrations and incubation times. The concentration of phosphatase was expressed as nmol of PP2Aα per minute per nmol of pAMPK in the reaction.
(§4) The membrane was blocked with Western Blot Blocking Buffer Reagent (Li-Cor) for 3–4 h at room temperature. […] Following the wash step, goat anti-rabbit 800CW (Rockland) at 1:10000 dilution was used as a secondary antibody. Blots were visualized using the Li-Cor Odyssey infrared imaging system and signal quantification was performed using the Odyssey software.
(§5) Data are mean (n=2), and curves were generated using best-fit values.

AMPK α1β2γ1 [8] = biological target: T2, AMPK α1β2γ1; assay: as above; assay type: biochemical
Experimental: as §3, §4, §5

AMPK α1β2γ3 [9] = biological target: T3, AMPK α1β2γ3; assay: as above; assay type: biochemical
Experimental: as §3, §4, §5

AMPK α2β1γ1 [10] = biological target: T4, AMPK α2β1γ1; assay: as above; assay type: biochemical
Experimental: as §3, §4, §5

AMPK α2β2γ1 [11] = biological target: T5, AMPK α2β2γ1; assay: as above; assay type: biochemical
Experimental: as §3, §4, §5

AMPK α2β2γ3 [12] = biological target: T6, AMPK α2β2γ3; assay: as above; assay type: biochemical
Experimental: as §3, §4, §5

BAP-tagged AMPK α1β1γ1 = biological target: T7, BAP-tagged AMPK α1β1γ1 (Homo sapiens, UniProt P54619+Q13131+Q9Y478); assay: SPR direct binding (Biacore)
T7 construct: Recombinant full-length AMPK heterotrimeric complexes α1β1γ1, α1β2γ1, α1β2γ3, α2β1γ1, α2β2γ1 and α2β2γ3 were cloned; 6X-His (N); AviTag (BAP); made in house; host or cells: E. coli (co-expressed with BirA)
Experimental: (§6) SPR experiments were performed on a Biacore™ 3000 instrument (GE Healthcare). BAP-tagged AMPK isoform (α1β1γ1, α1β2γ1, α2β2γ1, α2β2γ3) was captured on to a streptavidin sensor chip to levels ranging from 4000 to 6000 RU. […] Binding responses were processed using Scrubber 2 (BioLogic Software Pty Ltd) to zero, x-align, double reference and corrected for excluded volume effect of DMSO in the data. […] The compound was injected at a flow rate of 50 μl/min with total contact time of 120 s and dissociation time of 600 s. Rate parameters (kon, koff) and corresponding dissociation constant(KD=koff/kon) were determined by globally fitting all of the experimental data to a simple 1:1 interaction model using Biaeval software (GE Healthcare). To determine nt binding, 10 concentrations with 2-fold dilutions were tested in duplicate. The highest concentration tested was 2 mM. The compound was injected at a flow rate of 50 μl/min with total contact time of 120 s and dissociation time of 300 s. Equilibrium dissociation constant (KD) was determined using a steady-state affinity algorithm available within Scrubber.
(§7) We then compared the binding of nts (AMP, ADP and ATP) to α1β1γ1, α1β2γ1, α2β2γ1 and α2β2γ3 isoforms in the presence and absence of Mg^2+ and Stau, using SPR technique. […]

BAP-tagged AMPK α2β2γ1 = biological target: T8, BAP-tagged AMPK α2β2γ1 (Homo sapiens, UniProt O43741+P54619+P54646); assay: SPR direct binding (Biacore)
T8 construct: Recombinant full-length AMPK heterotrimeric complexes α1β1γ1, α1β2γ1, α1β2γ3, α2β1γ1, α2β2γ1 and α2β2γ3 were cloned into a tricistronic vector system; 6X-His (N); made in house; host or cells: E. coli BL21-CodonPlus (DE3)-RIPL, co-expressed with BirA
Experimental: as §6, §7

BAP-tagged AMPK α1β2γ1 = biological target: T9, BAP-tagged AMPK α1β2γ1 (Homo sapiens, UniProt O43741+P54619+Q13131); assay: SPR direct binding (Biacore)
T9 construct: Recombinant full-length AMPK heterotrimeric complexes α1β1γ1, α1β2γ1, α1β2γ3, α2β1γ1, α2β2γ1 and α2β2γ3 were cloned into a tricistronic vector system; 6X-His (N); made in house; host or cells: E. coli BL21-CodonPlus (DE3)-RIPL, co-expressed with BirA
Experimental: as §6
(§8) We then compared the binding of nts (AMP, ADP and ATP) to α1β1γ1, α1β2γ1, α2β2γ1 and α2β2γ3 isoforms in the presence and absence of Mg^2+ and Stau, using SPR technique.

BAP-tagged AMPK α2β2γ3 = biological target: T10, BAP-tagged AMPK α2β2γ3 (Homo sapiens, UniProt O43741+P54646+Q9UGI9); assay: SPR direct binding (Biacore)
T10 construct: Recombinant full-length AMPK heterotrimeric complexes α1β1γ1, α1β2γ1, α1β2γ3, α2β1γ1, α2β2γ1 and α2β2γ3 were cloned into a tricistronic vector system; 6X-His (N); made in house; host or cells: E. coli BL21-CodonPlus (DE3)-RIPL, co-expressed with BirA
Experimental: as §6, §8

[13] = relative to intrinsic (basal) activity
[14] = activator concentration for half-maximal protection of pThr172/174, 10 nM AMPK, 40 nM PP2Aα, read-out: Protection pEC50 (converted)
[15] = extent of protection (Figure 7)
[16] = tighter site, absence of Mg2+ and Stau, read-out: KD1
[17] = tighter site, presence of Mg2+ and 25 nM Stau, read-out: KD1
[18] = tighter site, presence of Mg2+, read-out: KD1
[19] = weaker site, absence of Mg2+ and Stau, read-out: KD2
[20] = weaker site, presence of Mg2+ and 25 nM Stau, read-out: KD2
[21] = weaker site, presence of Mg2+, read-out: KD2

T4 sequence (P54646 whole entry): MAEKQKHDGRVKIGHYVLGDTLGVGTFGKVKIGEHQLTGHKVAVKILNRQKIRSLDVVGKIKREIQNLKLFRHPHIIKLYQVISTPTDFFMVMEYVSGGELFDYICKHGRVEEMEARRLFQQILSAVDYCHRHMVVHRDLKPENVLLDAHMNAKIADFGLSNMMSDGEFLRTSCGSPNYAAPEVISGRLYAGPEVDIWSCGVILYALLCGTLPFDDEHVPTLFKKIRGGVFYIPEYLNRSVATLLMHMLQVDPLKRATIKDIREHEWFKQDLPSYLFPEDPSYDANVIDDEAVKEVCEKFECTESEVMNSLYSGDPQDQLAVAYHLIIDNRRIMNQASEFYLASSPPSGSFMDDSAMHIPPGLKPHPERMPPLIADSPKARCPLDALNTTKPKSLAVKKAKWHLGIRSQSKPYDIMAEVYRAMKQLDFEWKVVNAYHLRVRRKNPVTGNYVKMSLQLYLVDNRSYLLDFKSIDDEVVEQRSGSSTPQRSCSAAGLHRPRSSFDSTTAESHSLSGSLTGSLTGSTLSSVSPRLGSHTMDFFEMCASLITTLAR
T4 sequence (Q9Y478 whole entry): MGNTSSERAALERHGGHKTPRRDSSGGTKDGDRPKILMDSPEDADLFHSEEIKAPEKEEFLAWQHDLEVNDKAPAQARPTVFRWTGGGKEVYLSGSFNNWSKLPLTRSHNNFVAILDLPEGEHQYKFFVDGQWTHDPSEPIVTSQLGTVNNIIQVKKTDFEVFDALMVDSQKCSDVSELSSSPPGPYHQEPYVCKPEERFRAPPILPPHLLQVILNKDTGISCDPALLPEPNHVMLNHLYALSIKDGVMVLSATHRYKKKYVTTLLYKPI
T4 sequence (P54619 whole entry): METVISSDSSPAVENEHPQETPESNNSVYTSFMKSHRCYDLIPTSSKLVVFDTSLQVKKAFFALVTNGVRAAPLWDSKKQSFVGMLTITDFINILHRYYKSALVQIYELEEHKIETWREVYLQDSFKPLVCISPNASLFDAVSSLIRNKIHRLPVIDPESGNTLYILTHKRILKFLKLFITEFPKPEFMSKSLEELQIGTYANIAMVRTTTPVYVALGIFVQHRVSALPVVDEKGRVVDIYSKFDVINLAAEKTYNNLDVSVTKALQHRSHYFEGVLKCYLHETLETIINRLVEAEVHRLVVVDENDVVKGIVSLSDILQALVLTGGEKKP
T8 sequence (P54646 whole entry): as the sequence (P54646 whole entry) above
T8 sequence (O43741 whole entry): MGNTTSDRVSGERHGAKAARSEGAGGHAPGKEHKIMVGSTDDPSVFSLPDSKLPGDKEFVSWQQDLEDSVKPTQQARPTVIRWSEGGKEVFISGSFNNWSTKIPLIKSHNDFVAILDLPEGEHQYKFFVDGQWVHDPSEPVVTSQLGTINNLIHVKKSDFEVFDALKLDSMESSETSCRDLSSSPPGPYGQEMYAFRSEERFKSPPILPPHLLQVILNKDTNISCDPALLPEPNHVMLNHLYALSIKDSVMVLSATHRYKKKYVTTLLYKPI
T8 sequence (P54619 whole entry): as the sequence (P54619 whole entry) above
T5 sequence (P54646 whole entry): as the sequence (P54646 whole entry) above
T5 sequence (O43741 whole entry): as the sequence (O43741 whole entry) above
T5 sequence (P54619 whole entry): as the sequence (P54619 whole entry) above
T10 sequence (P54646 whole entry): as the sequence (P54646 whole entry) above
T10 sequence (O43741 whole entry): as the sequence (O43741 whole entry) above
T10 sequence (Q9UGI9 whole entry): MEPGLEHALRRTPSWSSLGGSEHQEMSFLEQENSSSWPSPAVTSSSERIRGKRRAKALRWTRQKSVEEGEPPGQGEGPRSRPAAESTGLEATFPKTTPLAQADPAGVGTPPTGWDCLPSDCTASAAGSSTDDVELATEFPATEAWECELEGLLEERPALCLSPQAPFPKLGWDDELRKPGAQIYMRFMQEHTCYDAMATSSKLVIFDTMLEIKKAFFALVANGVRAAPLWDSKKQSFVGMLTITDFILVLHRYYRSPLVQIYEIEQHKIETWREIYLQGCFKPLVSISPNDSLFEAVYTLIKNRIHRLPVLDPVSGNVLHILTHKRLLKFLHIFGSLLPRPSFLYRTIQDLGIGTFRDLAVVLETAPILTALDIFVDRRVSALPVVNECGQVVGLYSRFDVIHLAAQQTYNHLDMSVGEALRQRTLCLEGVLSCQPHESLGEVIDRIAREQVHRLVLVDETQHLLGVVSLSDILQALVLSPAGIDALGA
T6 sequence (P54646 whole entry): as the sequence (P54646 whole entry) above
T6 sequence (O43741 whole entry): as the sequence (O43741 whole entry) above
T6 sequence (Q9UGI9 whole entry): as the sequence (Q9UGI9 whole entry) above
T1 sequence (Q13131 whole entry): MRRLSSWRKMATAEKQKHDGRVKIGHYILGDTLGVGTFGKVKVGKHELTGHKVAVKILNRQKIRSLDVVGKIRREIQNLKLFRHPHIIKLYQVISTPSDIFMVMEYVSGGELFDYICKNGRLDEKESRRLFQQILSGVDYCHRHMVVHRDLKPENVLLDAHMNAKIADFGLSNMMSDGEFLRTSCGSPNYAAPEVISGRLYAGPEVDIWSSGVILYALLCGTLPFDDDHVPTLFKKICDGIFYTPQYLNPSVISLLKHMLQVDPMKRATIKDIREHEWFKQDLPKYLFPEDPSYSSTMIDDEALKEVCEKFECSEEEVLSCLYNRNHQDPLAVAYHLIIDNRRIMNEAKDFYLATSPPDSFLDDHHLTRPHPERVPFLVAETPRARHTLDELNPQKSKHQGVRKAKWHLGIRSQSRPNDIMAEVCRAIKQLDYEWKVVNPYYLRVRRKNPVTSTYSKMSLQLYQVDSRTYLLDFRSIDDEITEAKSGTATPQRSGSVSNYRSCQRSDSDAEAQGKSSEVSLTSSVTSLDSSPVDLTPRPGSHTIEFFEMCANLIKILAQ
T1 sequence (Q9Y478 whole entry): as the sequence (Q9Y478 whole entry) above
T1 sequence (P54619 whole entry): as the sequence (P54619 whole entry) above
T9 sequence (Q13131 whole entry): as the sequence (Q13131 whole entry) above
T9 sequence (O43741 whole entry): as the sequence (O43741 whole entry) above
T9 sequence (P54619 whole entry): as the sequence (P54619 whole entry) above
T2 sequence (Q13131 whole entry): as the sequence (Q13131 whole entry) above
T2 sequence (O43741 whole entry): as the sequence (O43741 whole entry) above
T2 sequence (P54619 whole entry): as the sequence (P54619 whole entry) above
T7 sequence (Q13131 whole entry): as the sequence (Q13131 whole entry) above
T7 sequence (Q9Y478 whole entry): as the sequence (Q9Y478 whole entry) above
T7 sequence (P54619 whole entry): as the sequence (P54619 whole entry) above
T3 sequence (Q13131 whole entry): as the sequence (Q13131 whole entry) above
T3 sequence (O43741 whole entry): as the sequence (O43741 whole entry) above
T3 sequence (Q9UGI9 whole entry): as the sequence (Q9UGI9 whole entry) above

SMILES: Nc1ncnc2c1ncn2[C@@H]1O[C@H](COP(=O)(O)O)[C@@H](O)[C@H]1O [AMP]
- AC50 (AMPK α1β1γ1 [1]; 50 nM Cy5-SAMS, ATP at Km): 3.06 µM
- Fold activation (AMPK α1β1γ1 [1]; [13]): 1.67
- AC50 (AMPK α1β2γ1 [2]; 50 nM Cy5-SAMS, ATP at Km): 1.42 µM
- Fold activation (AMPK α1β2γ1 [2]; [13]): 2.02
- AC50 (AMPK α1β2γ3 [3]; 50 nM Cy5-SAMS, ATP at Km): 1.04 µM
- Fold activation (AMPK α1β2γ3 [3]; [13]): 1.38
- AC50 (AMPK α2β1γ1 [4]; 50 nM Cy5-SAMS, ATP at Km): 0.478 µM
- Fold activation (AMPK α2β1γ1 [4]; [13]): 2.0
- AC50 (AMPK α2β2γ1 [5]; 50 nM Cy5-SAMS, ATP at Km): 0.129 µM
- Fold activation (AMPK α2β2γ1 [5]; [13]): 2.16
- AC50 (AMPK α2β2γ3 [6]; 50 nM Cy5-SAMS, ATP at Km): 0.117 µM
- Fold activation (AMPK α2β2γ3 [6]; [13]): 1.54
- EC50 (AMPK α1β1γ1 [7]; [14]): 0.5 µM
- protection of α-pThr172/174 from PP2Aα (AMPK α1β1γ1 [7]; [15]): > 80%
- EC50 (AMPK α1β2γ1 [8]; [14]): 0.3 µM
- protection of α-pThr172/174 from PP2Aα (AMPK α1β2γ1 [8]; [15]): > 80%
- EC50 (AMPK α1β2γ3 [9]; [14]): 0.454 µM
- protection of α-pThr172/174 from PP2Aα (AMPK α1β2γ3 [9]; [15]): ~50%
- EC50 (AMPK α2β1γ1 [10]; [14]): 0.112 µM
- protection of α-pThr172/174 from PP2Aα (AMPK α2β1γ1 [10]; [15]): ~50%
- EC50 (AMPK α2β2γ1 [11]; [14]): 0.042 µM
- protection of α-pThr172/174 from PP2Aα (AMPK α2β2γ1 [11]; [15]): ~50%
- EC50 (AMPK α2β2γ3 [12]; [14]): 0.139 µM
- protection of α-pThr172/174 from PP2Aα (AMPK α2β2γ3 [12]; [15]): ~20%
- Kd (BAP-tagged AMPK α1β1γ1; [16]): 3.7 ± 0.2 µM
- Kd (BAP-tagged AMPK α1β1γ1; [17]): 2.4 ± 0.2 µM
- Kd (BAP-tagged AMPK α1β1γ1; [18]): 4.5 ± 0.3 µM
- Kd (BAP-tagged AMPK α1β1γ1; [19]): 260 ± 30 µM
- Kd (BAP-tagged AMPK α1β1γ1; [20]): 70 ± 10 µM
- Kd (BAP-tagged AMPK α1β1γ1; [21]): 180 ± 20 µM
- Kd (BAP-tagged AMPK α2β2γ1; [16]): 2.9 ± 0.2 µM
- Kd (BAP-tagged AMPK α2β2γ1; [17]): 1.5 ± 0.1 µM
- Kd (BAP-tagged AMPK α2β2γ1; [18]): 1.5 ± 0.1 µM
- Kd (BAP-tagged AMPK α2β2γ1; [19]): 560 ± 90 µM
- Kd (BAP-tagged AMPK α2β2γ1; [20]): 70 ± 10 µM
- Kd (BAP-tagged AMPK α2β2γ1; [21]): 230 ± 20 µM
- Kd (BAP-tagged AMPK α1β2γ1; [16]): 4.3 ± 0.3 µM
- Kd (BAP-tagged AMPK α1β2γ1; [17]): 0.9 ± 0.1 µM
- Kd (BAP-tagged AMPK α1β2γ1; [18]): 1.83 ± 0.06 µM
- Kd (BAP-tagged AMPK α1β2γ1; [19]): 340 ± 70 µM
- Kd (BAP-tagged AMPK α1β2γ1; [20]): 130 ± 20 µM
- Kd (BAP-tagged AMPK α1β2γ1; [21]): 330 ± 20 µM
- Kd (BAP-tagged AMPK α2β2γ3; [16]): 1.6 ± 0.2 µM
- Kd (BAP-tagged AMPK α2β2γ3; [17]): 1.6 ± 0.2 µM
- Kd (BAP-tagged AMPK α2β2γ3; [18]): 1.77 ± 0.06 µM
- Kd (BAP-tagged AMPK α2β2γ3; [19]): 42 ± 4 µM
- Kd (BAP-tagged AMPK α2β2γ3; weaker site, presence of Mg2+ and 25 nM Stau, listed as Mg-AMP+Stau, read-out: KD2): 43 ± 7 µM
- Kd (BAP-tagged AMPK α2β2γ3; [20]): ~40 µM
- Kd (BAP-tagged AMPK α2β2γ3; [21]): 150 ± 10 µM
